Experiments:
Homo sapiens [1] = experiment: Toxicity in human assessed as flatulence at 50 to 200 mg administered as single dose; assay type: organism-based; conditions: in vivo
[2] = Tmax in fasted human at 400 mg administered as single dose; assay type: ADME, organism-based; conditions: in vivo
[3] = Tmax in human at 200 mg administered with fat meal every 12 hrs for 8 days measured on day 1; assay type: ADME, organism-based; conditions: in vivo
[4] = Apparent oral clearance in fasted human at 400 mg administered as single dose; assay type: ADME, organism-based; conditions: in vivo
[5] = Apparent oral clearance in fasted human at 200 mg administered as single dose; assay type: ADME, organism-based; conditions: in vivo
[6] = Terminal elimination half life in human at 200 mg administered with fat meal as single dose; assay type: ADME, organism-based; conditions: in vivo, read-out: beta t1/2 (converted)
[7] = Apparent oral clearance in human at 100 mg administered with fat meal every 12 hrs for 8 days measured on day 8; assay type: ADME, organism-based; conditions: in vivo
[8] = Cmax in human at 50 mg administered with fat meal every 12 hrs for 8 days measured on day 1; assay type: ADME, organism-based; set-up: dose 50 mg; conditions: in vivo
[9] = Cmax in fasted human at 50 mg administered as single dose; assay type: ADME, organism-based; set-up: dose 50 mg; conditions: in vivo
[10] = Cmax in human at 200 mg administered with fat meal every 12 hrs for 8 days measured on day 1; assay type: ADME, organism-based; set-up: dose 200 mg; conditions: in vivo
[11] = Apparent oral clearance in fasted human at 100 mg administered as single dose; assay type: ADME, organism-based; conditions: in vivo
[12] = Terminal elimination half life in fasted human at 200 mg administered as single dose; assay type: ADME, organism-based; conditions: in vivo, read-out: beta t1/2 (converted)
[13] = Tmax in human at 100 mg administered with fat meal every 12 hrs for 8 days measured on day 1; assay type: ADME, organism-based; conditions: in vivo
[14] = Terminal elimination half life in iv dosed rat; assay type: ADME, organism-based; conditions: in vivo, read-out: beta t1/2 (converted)
[15] = Apparent oral clearance in human at 200 mg administered with fat meal as single dose; assay type: ADME, organism-based; conditions: in vivo
Homo sapiens [16] = experiment: Toxicity in human assessed as adverse effect at 200 mg administered every 8 hrs for 8 days; assay type: organism-based; conditions: in vivo
[17] = Apparent oral clearance in fasted human at 50 mg administered as single dose; assay type: ADME, organism-based; conditions: in vivo
[18] = Apparent oral clearance in human at 400 mg administered with fat meal daily for 8 days measured on day 1; assay type: ADME, organism-based; conditions: in vivo
[19] = Tmax in human at 50 mg administered with fat meal every 12 hrs for 8 days measured on day 1; assay type: ADME, organism-based; conditions: in vivo
[20] = Plasma concentration in human at 400 mg administered with fat meal every 12 hrs for 8 days measured on day 1 after 12 hrs of first dose; assay type: ADME, organism-based
[21] = Tmax in human at 200 mg administered with fat meal every 12 hrs for 8 days measured on day 8; assay type: ADME, organism-based; conditions: in vivo
[22] = Tmax in fasted human at 400 mg administered with fat meal as single dose; assay type: ADME, organism-based; conditions: in vivo
[23] = Terminal elimination half life in human at 400 mg administered with fat meal daily for 8 days measured on day 1; assay type: ADME, organism-based; conditions: in vivo, read-out: beta t1/2 (converted)
Homo sapiens [24] = experiment: Toxicity in human assessed as adverse effect at 200 mg administered every 12 hrs for 8 days; assay type: organism-based; conditions: in vivo
Homo sapiens [25] = experiment: Toxicity in human assessed as adverse effect at 50 to 200 mg administered as single dose; assay type: organism-based; conditions: in vivo
[26] = Cmax in human at 400 mg administered with fat meal daily for 8 days measured on day 1; assay type: ADME, organism-based; set-up: dose 400 mg; conditions: in vivo
Homo sapiens [27] = experiment: Toxicity in human assessed as dizziness at 200 mg administered every 8 hrs for 8 days; assay type: organism-based; conditions: in vivo
[28] = Tmax in human at 200 mg administered with fat meal every 8 hrs for 8 days measured on day 8; assay type: ADME, organism-based; conditions: in vivo
[29] = Terminal elimination half life in human at 50 mg administered with fat meal every 12 hrs for 8 days measured on day 1; assay type: ADME, organism-based; conditions: in vivo, read-out: beta t1/2 (converted)
[30] = AUC (0 to infinity) in human at 200 mg administered with fat meal every 12 hrs for 8 days measured on day 1; assay type: ADME, organism-based; set-up: dose 200 mg, time infinity; conditions: plasma
Homo sapiens [31] = experiment: Toxicity in human assessed as diarrhea at 50 to 200 mg administered as single dose; assay type: organism-based; conditions: in vivo
[32] = AUC (0 to 24 hrs) in human at 400 mg administered with fat meal daily for 8 days measured on day 8; assay type: ADME, organism-based; set-up: dose 400 mg, time < 24 hr; conditions: plasma
[33] = Apparent oral clearance in human at 100 mg administered with fat meal every 12 hrs for 8 days measured on day 1; assay type: ADME, organism-based; conditions: in vivo
[34] = Apparent oral clearance in human at 200 mg administered with fat meal every 8 hrs for 8 days measured on day 1; assay type: ADME, organism-based; conditions: in vivo
Rhesus monkey = experiment: Clearance in iv dosed monkey assessed as liver blood flow; assay type: ADME, organism-based, Macaca mulatta; conditions: in vivo
[35] = Cmax in fasted human at 100 mg administered as single dose; assay type: ADME, organism-based; set-up: dose 100 mg; conditions: in vivo
Homo sapiens [36] = experiment: Toxicity in human assessed as changes in hematology at 50 to 200 mg administered as single dose; assay type: organism-based; conditions: in vivo
[37] = AUC (0 to infinity) in fasted human at 50 mg administered as single dose; assay type: ADME, organism-based; set-up: dose 50 mg, time infinity; conditions: plasma
[38] = Terminal elimination half life in human at 400 mg administered with fat meal as single dose; assay type: ADME, organism-based; conditions: in vivo, read-out: beta t1/2 (converted)
Homo sapiens [39] = experiment: Toxicity in human assessed as changes in vital sign at 50 to 400 mg after sequential repeated administration for 8 days; assay type: organism-based; conditions: in vivo, 192 h
[40] = AUC (0 to infinity) in human at 200 mg administered with fat meal as single dose; assay type: ADME, organism-based; set-up: dose 200 mg, time infinity; conditions: plasma
[41] = Terminal elimination half life in human at 50 mg administered with fat meal every 12 hrs for 8 days measured on day 8; assay type: ADME, organism-based; conditions: in vivo, read-out: beta t1/2 (converted)
[42] = Cmax in human at 50 mg administered with fat meal every 12 hrs for 8 days measured on day 8; assay type: ADME, organism-based; set-up: dose 50 mg; conditions: in vivo
Homo sapiens [43] = experiment: Toxicity in human assessed as adverse effect at 100 mg administered every 12 hrs for 8 days; assay type: organism-based; conditions: in vivo
[44] = Tmax in fasted human at 200 mg administered with fat meal as single dose; assay type: ADME, organism-based; conditions: in vivo
[45] = AUC (0 to infinity) in human at 400 mg administered with fat meal daily for 8 days measured on day 1; assay type: ADME, organism-based; set-up: dose 400 mg, time infinity; conditions: plasma
Homo sapiens [46] = experiment: Toxicity in human assessed as dizziness at 200 mg administered every 12 hrs for 8 days; assay type: organism-based; conditions: in vivo
[47] = Terminal elimination half life in fasted human at 100 mg administered as single dose; assay type: ADME, organism-based; conditions: in vivo, read-out: beta t1/2 (converted)
[48] = AUC (0 to infinity) in fasted human at 400 mg administered as single dose; assay type: ADME, organism-based; set-up: dose 400 mg, time infinity; conditions: plasma
Homo sapiens [49] = experiment: Toxicity in human assessed as changes in vital signs at 50 to 200 mg administered as single dose; assay type: organism-based; conditions: in vivo
[50] = AUC (0 to infinity) in fasted human at 100 mg administered as single dose; assay type: ADME, organism-based; set-up: dose 100 mg, time infinity; conditions: plasma
[51] = Plasma concentration in human at 200 mg administered with fat meal every 12 hrs for 8 days measured on day 1 after 12 hrs of first dose; assay type: ADME, organism-based
[52] = Tmax in fasted human at 100 mg administered as single dose; assay type: ADME, organism-based; conditions: in vivo
[53] = AUC (0 to infinity) in human at 100 mg administered with fat meal every 12 hrs for 8 days measured on day 1; assay type: ADME, organism-based; set-up: dose 100 mg, time infinity; conditions: plasma
Homo sapiens [54] = experiment: Toxicity in human assessed as headache at 50 mg administered every 12 hrs for 8 days; assay type: organism-based; conditions: in vivo
[55] = Apparent oral clearance in human at 50 mg administered with fat meal every 12 hrs for 8 days measured on day 8; assay type: ADME, organism-based; conditions: in vivo
[56] = Terminal elimination half life in human at 400 mg administered with fat meal daily for 8 days measured on day 8; assay type: ADME, organism-based; conditions: in vivo, read-out: beta t1/2 (converted)
[57] = Cmax in human at 200 mg administered with fat meal every 8 hrs for 8 days measured on day 8; assay type: ADME, organism-based; set-up: dose 200 mg; conditions: in vivo
[58] = Tmax in human at 100 mg administered with fat meal every 12 hrs for 8 days measured on day 8; assay type: ADME, organism-based; conditions: in vivo

Cn1c(=O)c(C(=O)NCCO)c(O)c2ncc(Cc3ccc(F)cc3)cc21 [GSK-364735]
Activity (Homo sapiens [1]): 4% | Tmax [2]: 2.2 h | Tmax [3]: 4 h | CL/F [4]: 1020 mL/min | CL/F [5]: 600 mL/min | half-life [6]: 6.5 h | CL/F [7]: 138 mL/min | Cmax [8]: 740 ng/mL | Cmax [9]: 760 ng/mL | Cmax [10]: 1500 ng/mL | CL/F [11]: 317 mL/min | half-life [12]: 5.3 h | Tmax [13]: 3.25 h | half-life [14]: 1.5 h | CL/F [15]: 317 mL/min | Activity (Homo sapiens [16]): 63% | CL/F [17]: 267 mL/min | CL/F [18]: 433 mL/min | Tmax [19]: 5.5 h | concentration at 12 h [20]: 340 ng/mL | Tmax [21]: 3 h | Tmax [22]: 7 h | half-life [23]: 4.1 h | Activity (Homo sapiens [24]): 25% | Activity (Homo sapiens [25]): 4% | Cmax [26]: 2200 ng/mL | Activity (Homo sapiens [27]): 13% | Tmax [28]: 4 h | half-life [29]: 2.6 h | AUC(0-inf) [30]: 9200 ng·h/mL | Activity (Homo sapiens [31]): 4% | AUC at 24 h [32]: 12000 ng·h/mL | CL/F [33]: 147 mL/min | CL/F [34]: 567 mL/min | QH (Rhesus monkey): 4.6% | Cmax [35]: 1000 ng/mL | Activity (Homo sapiens [36]): Non-toxic | AUC(0-inf) [37]: 3200 ng·h/mL | half-life [38]: 5.8 h | Activity (Homo sapiens [39]): Non-toxic | AUC(0-inf) [40]: 11000 ng·h/mL | half-life [41]: 3.7 h | Cmax [42]: 1400 ng/mL | Activity (Homo sapiens [43]): 38% | Tmax [44]: 4 h | AUC(0-inf) [45]: 15000 ng·h/mL | Activity (Homo sapiens [46]): Non-toxic | half-life [47]: 2.9 h | AUC(0-inf) [48]: 6600 ng·h/mL | Activity (Homo sapiens [49]): Non-toxic | AUC(0-inf) [50]: 5200 ng·h/mL | concentration at 12 h [51]: 230 ng/mL | Tmax [52]: 2.5 h | AUC(0-inf) [53]: 11000 ng·h/mL | Activity (Homo sapiens [54]): 13% | CL/F [55]: 150 mL/min | half-life [56]: 4.4 h | Cmax [57]: 970 ng/mL | Tmax [58]: 3.75 h

Source: ChEMBL document CHEMBL1151440, “Safety and pharmacokinetics of GSK364735, a human immunodeficiency virus type 1 integrase inhibitor, following single and repeated administration in healthy adult subjects” (Antimicrob Agents Chemother, 2007)
